Like-named read-outs stand apart in the source and are kept apart here. Positions of bridges follow the written chain, without caps; N, C: chain ends. Non-standard residues stand in square brackets, D forms with d. Residues, ends and D or L forms follow the SMILES beside them.
Assay: Biodistribution in B16/F1 melanoma-bearing C57 mice
Format: in vivo
Details: female, C57, mouse, iv, total radioactivity; for tissue uptake at 2 h / tissue uptake dose at 2 h: 2 h post-injection
Procedure: All the animal studies were conducted in compliance with Institutional Animal Care and Use Committee approval. The pharmacokinetics of ^99mTc-RGD-Lys-(Arg^11)CCMSH was determined in B16/F1 melanoma-bearing C57 female mice (Harlan, Indianapolis, Ind.). C57 mice were subcutaneously inoculated on the right flank with 1×10^6 B16/F1 cells. The weight of tumors reached approximately 0.2 g 10 days post cell inoculation. Each melanoma-bearing mouse was injected with 0.037 MBq of ^99mTc-RGD-Lys-(Arg^11)CCMSH via the tail vein. Groups of 5 mice were sacrificed at 0.5, 2, 4 and 24 h post-injection, and tumors and organs of interest were harvested, weighed and counted. Blood values were taken as 6.5% of the whole-body weight. The MC1 receptor specificity of the tumor uptake was determined at 2 h post-injection by co-injecting ^99mTc-RGD-Lys-(Arg^11)CCMSH with 10 μg (6.1 nmol) of unlabeled NDP-MSH, a linear α-MSH peptide analogue with picomolar affinity for the MC1 receptors present on murine melanoma cells. The co-injection of 3.5 μg (6.1 nmol) of RGD peptide was performed to determine the αvβ3 integrin specificity of the tumor uptake 2 h post-injection. Statistical analysis was performed using the Student's t-test for unpaired data.
All the animal studies were conducted in compliance with Institutional Animal Care and Use Committee approval. The pharmacokinetics of ^99mTc-RGD-Arg-(Arg^11)CCMSH was determined in B16/F1 melanoma-bearing C57 female mice (Harlan, Indianapolis, Ind.). C57 mice were subcutaneously inoculated on the right flank with 1×10^6 B16/F1 cells. The weight of tumors reached approximately 0.2 g 10 days post cell inoculation. Each melanoma-bearing mouse was injected with 0.037 MBq of ^99mTc-RGD-Arg-(Arg^11)CCMSH via the tail vein. Groups of 5 mice were sacrificed at 0.5, 2, 4 and 24 h post-injection, and tumors and organs of interest were harvested, weighed and counted. Blood values were taken as 6.5% of the whole-body weight. The MC1 receptor specificity of the tumor uptake was determined at 2 h post-injection by co-injecting ^99mTc-RGD-Arg-(Arg^11)CCMSH with 10 μg (6.1 nmol) of unlabeled NDP-MSH. The co-injection of 3.5 μg (6.1 nmol) of RGD peptide was performed to determine the αvβ3 integrin specificity of the tumor uptake at 2 h post-injection.

CC(C)[C@H](NC(=O)[C@@H]1CCCN1C(=O)[C@H](CCCNC(=N)N)NC(=O)[C@H](CS)NC(=O)[C@H](Cc1c[nH]c2ccccc12)NC(=O)[C@H](CCCNC(=N)N)NC(=O)[C@@H](Cc1ccccc1)NC(=O)[C@H](Cc1c[nH]cn1)NC(=O)[C@H](CCC(=O)O)NC(=O)[C@H](CS)NC(=O)[C@H](CS)NC(=O)[C@H](CCCNC(=N)N)NC(=O)[C@@H]1CC(=O)N[C@@H](CCCNC(=N)N)C(=O)NCC(=O)N[C@@H](CC(=O)O)C(=O)N[C@H](Cc2ccc(O)cc2)C(=O)N1)C(N)=O [^99mTc-RGD-Arg-(Arg^11)CCMSH, metal not drawn] (RGD[dY]DRCCEH[dF]RWCRPV-NH2; lactam N-5)
tissue uptake at 0.5 h (blood, 0.037 MBq, 0.5 h post-injection, read-out: Blood, Percentage Injected Dose/gram): 3.64 ± 0.69 %ID/g
tissue uptake at 2 h (blood, 0.037 MBq, read-out: Blood, Percentage Injected Dose/gram): 0.55 ± 0.47 %ID/g
tissue uptake at 4 h (blood, 0.037 MBq, 4 h post-injection, read-out: Blood, Percentage Injected Dose/gram): 0.71 ± 0.41 %ID/g
tissue uptake at 24 h (blood, 0.037 MBq, 24 h post-injection, read-out: Blood, Percentage Injected Dose/gram): 0.24 ± 0.14 %ID/g
tissue uptake at 2 h (blood, NDP blockade (10 μg NDP-MSH co-injected), read-out: Blood, Percentage Injected Dose/gram): 0.47 ± 0.29 %ID/g
tissue uptake at 2 h (blood, RGD blockade (3.5 μg RGD co-injected), read-out: Blood, Percentage Injected Dose/gram): 0.04 ± 0.01 %ID/g
tissue uptake at 0.5 h (bone, 0.037 MBq, 0.5 h post-injection, read-out: Bone, Percentage Injected Dose/gram): 2.01 ± 0.19 %ID/g
tissue uptake at 2 h (bone, 0.037 MBq, read-out: Bone, Percentage Injected Dose/gram): 0.57 ± 0.15 %ID/g
tissue uptake at 4 h (bone, 0.037 MBq, 4 h post-injection, read-out: Bone, Percentage Injected Dose/gram): 0.97 ± 0.22 %ID/g
tissue uptake at 24 h (bone, 0.037 MBq, 24 h post-injection, read-out: Bone, Percentage Injected Dose/gram): 0.9 ± 0.39 %ID/g
tissue uptake at 2 h (bone, NDP blockade (10 μg NDP-MSH co-injected), read-out: Bone, Percentage Injected Dose/gram): 0.98 ± 0.39 %ID/g
tissue uptake at 2 h (bone, RGD blockade (3.5 μg RGD co-injected), read-out: Bone, Percentage Injected Dose/gram): 0.52 ± 0.42 %ID/g
tissue uptake at 0.5 h (brain, 0.037 MBq, 0.5 h post-injection, read-out: Brain, Percentage Injected Dose/gram): 0.16 ± 0.02 %ID/g
tissue uptake at 2 h (brain, 0.037 MBq, read-out: Brain, Percentage Injected Dose/gram): 0.06 ± 0.02 %ID/g
tissue uptake at 4 h (brain, 0.037 MBq, 4 h post-injection, read-out: Brain, Percentage Injected Dose/gram): 0.04 ± 0.03 %ID/g
tissue uptake at 24 h (brain, 0.037 MBq, 24 h post-injection, read-out: Brain, Percentage Injected Dose/gram): 0.06 ± 0.02 %ID/g
tissue uptake at 2 h (brain, NDP blockade (10 μg NDP-MSH co-injected), read-out: Brain, Percentage Injected Dose/gram): 0.06 ± 0.01 %ID/g
tissue uptake at 2 h (brain, RGD blockade (3.5 μg RGD co-injected), read-out: Brain, Percentage Injected Dose/gram): 0.04 ± 0.01 %ID/g
tissue uptake at 0.5 h (heart, 0.037 MBq, 0.5 h post-injection, read-out: Heart, Percentage Injected Dose/gram): 2.36 ± 0.37 %ID/g
tissue uptake at 2 h (heart, 0.037 MBq, read-out: Heart, Percentage Injected Dose/gram): 0.73 ± 0.27 %ID/g
tissue uptake at 4 h (heart, 0.037 MBq, 4 h post-injection, read-out: Heart, Percentage Injected Dose/gram): 0.53 ± 0.19 %ID/g
tissue uptake at 24 h (heart, 0.037 MBq, 24 h post-injection, read-out: Heart, Percentage Injected Dose/gram): 0.34 ± 0.07 %ID/g
tissue uptake at 2 h (heart, with RGD peptide, 3.5 μg (6.1 nmol) co-injected, RGD blockade (3.5 μg RGD co-injected), read-out: Heart, Percentage Injected Dose/gram): 0.55 ± 0.22 %ID/g
tissue uptake at 2 h (heart, with unlabeled NDP-MSH, 10 μg (6.1 nmol) co-injected, NDP blockade (10 μg NDP-MSH co-injected), read-out: Heart, Percentage Injected Dose/gram): 0.61 ± 0.21 %ID/g
tissue uptake dose at 0.5 h (intestines, 0.037 MBq, 0.5 h post-injection, read-out: Intestines, Percentage Injected Dose): 3.19 ± 0.22 %ID
tissue uptake dose at 2 h (intestines, 0.037 MBq, read-out: Intestines, Percentage Injected Dose): 2.57 ± 0.58 %ID
tissue uptake dose at 4 h (intestines, 0.037 MBq, 4 h post-injection, read-out: Intestines, Percentage Injected Dose): 2.62 ± 0.57 %ID
tissue uptake dose at 24 h (intestines, 0.037 MBq, 24 h post-injection, read-out: Intestines, Percentage Injected Dose): 1.01 ± 0.11 %ID
tissue uptake dose at 2 h (intestines, NDP blockade (10 μg NDP-MSH co-injected), read-out: Intestines, Percentage Injected Dose): 2.34 ± 0.52 %ID
tissue uptake dose at 2 h (intestines, RGD blockade (3.5 μg RGD co-injected), read-out: Intestines, Percentage Injected Dose): 1.79 ± 0.58 %ID
tissue uptake at 0.5 h (kidneys, 0.037 MBq, 0.5 h post-injection, read-out: Kidneys, Percentage Injected Dose/gram): 37.2 ± 4.72 %ID/g
tissue uptake at 2 h (kidneys, 0.037 MBq, read-out: Kidneys, Percentage Injected Dose/gram): 43 ± 8.14 %ID/g
tissue uptake at 4 h (kidneys, 0.037 MBq, 4 h post-injection, read-out: Kidneys, Percentage Injected Dose/gram): 36.6 ± 11.7 %ID/g
tissue uptake at 24 h (kidneys, 0.037 MBq, 24 h post-injection, read-out: Kidneys, Percentage Injected Dose/gram): 16.2 ± 4.01 %ID/g
tissue uptake at 2 h (kidneys, NDP blockade (10 μg NDP-MSH co-injected), read-out: Kidneys, Percentage Injected Dose/gram): 34.8 ± 8.46 %ID/g
tissue uptake at 2 h (kidneys, RGD blockade (3.5 μg RGD co-injected), read-out: Kidneys, Percentage Injected Dose/gram): 38.5 ± 7.45 %ID/g
tissue uptake at 0.5 h (liver, 0.037 MBq, 0.5 h post-injection, read-out: Liver, Percentage Injected Dose/gram): 4.21 ± 1.04 %ID/g
tissue uptake at 2 h (liver, 0.037 MBq, read-out: Liver, Percentage Injected Dose/gram): 3.58 ± 1.08 %ID/g
tissue uptake at 4 h (liver, 0.037 MBq, 4 h post-injection, read-out: Liver, Percentage Injected Dose/gram): 4.93 ± 0.38 %ID/g
tissue uptake at 24 h (liver, 0.037 MBq, 24 h post-injection, read-out: Liver, Percentage Injected Dose/gram): 1.89 ± 0.36 %ID/g
tissue uptake at 2 h (liver, NDP blockade (10 μg NDP-MSH co-injected), read-out: Liver, Percentage Injected Dose/gram): 2.87 ± 0.34 %ID/g
tissue uptake at 2 h (liver, RGD blockade (3.5 μg RGD co-injected), read-out: Liver, Percentage Injected Dose/gram): 2.3 ± 0.22 %ID/g
tissue uptake at 0.5 h (lung, 0.037 MBq, 0.5 h post-injection, read-out: Lung, Percentage Injected Dose/gram): 7.55 ± 1.29 %ID/g
tissue uptake at 2 h (lung, 0.037 MBq, read-out: Lung, Percentage Injected Dose/gram): 2.05 ± 0.52 %ID/g
tissue uptake at 4 h (lung, 0.037 MBq, 4 h post-injection, read-out: Lung, Percentage Injected Dose/gram): 1.01 ± 0.41 %ID/g
tissue uptake at 24 h (lung, 0.037 MBq, 24 h post-injection, read-out: Lung, Percentage Injected Dose/gram): 0.76 ± 0.14 %ID/g
tissue uptake at 2 h (lung, NDP blockade (10 μg NDP-MSH co-injected), read-out: Lung, Percentage Injected Dose/gram): 1.42 ± 0.31 %ID/g
tissue uptake at 2 h (lung, RGD blockade (3.5 μg RGD co-injected), read-out: Lung, Percentage Injected Dose/gram): 1.21 ± 0.5 %ID/g
tissue uptake at 0.5 h (muscle, 0.037 MBq, 0.5 h post-injection, read-out: Muscle, Percentage Injected Dose/gram): 1.79 ± 1.14 %ID/g
tissue uptake at 2 h (muscle, 0.037 MBq, read-out: Muscle, Percentage Injected Dose/gram): 0.21 ± 0.12 %ID/g
tissue uptake at 4 h (muscle, 0.037 MBq, 4 h post-injection, read-out: Muscle, Percentage Injected Dose/gram): 0.32 ± 0.25 %ID/g
tissue uptake at 24 h (muscle, 0.037 MBq, 24 h post-injection, read-out: Muscle, Percentage Injected Dose/gram): 0.25 ± 0.05 %ID/g
tissue uptake at 2 h (muscle, NDP blockade (10 μg NDP-MSH co-injected), read-out: Muscle, Percentage Injected Dose/gram): 0.5 ± 0.12 %ID/g
tissue uptake at 2 h (muscle, RGD blockade (3.5 μg RGD co-injected), read-out: Muscle, Percentage Injected Dose/gram): 0.28 ± 0.2 %ID/g
tissue uptake (normal organs except kidneys, 0.037 MBq, after 2 h post-injection, read-out: Normal organ uptakes except for the kidneys): < 3.6 %ID/g
tissue uptake at 0.5 h (pancreas, 0.037 MBq, 0.5 h post-injection, read-out: Pancreas, Percentage Injected Dose/gram): 1.02 ± 0.36 %ID/g
tissue uptake at 2 h (pancreas, 0.037 MBq, read-out: Pancreas, Percentage Injected Dose/gram): 0.36 ± 0.2 %ID/g
tissue uptake at 4 h (pancreas, 0.037 MBq, 4 h post-injection, read-out: Pancreas, Percentage Injected Dose/gram): 0.37 ± 0.12 %ID/g
tissue uptake at 24 h (pancreas, 0.037 MBq, 24 h post-injection, read-out: Pancreas, Percentage Injected Dose/gram): 0.19 ± 0.09 %ID/g
tissue uptake at 2 h (pancreas, NDP blockade (10 μg NDP-MSH co-injected), read-out: Pancreas, Percentage Injected Dose/gram): 0.37 ± 0.22 %ID/g
tissue uptake at 2 h (pancreas, RGD blockade (3.5 μg RGD co-injected), read-out: Pancreas, Percentage Injected Dose/gram): 0.32 ± 0.17 %ID/g
tissue uptake at 0.5 h (skin, 0.037 MBq, 0.5 h post-injection, read-out: Skin, Percentage Injected Dose/gram): 4.55 ± 1.01 %ID/g

Reference: patent US9005575B2, “Arg-Gly-Asp-conjugated alpha-melanocyte stimulating hormone hybrid peptide for use in diagnosing and treating melanoma, including metastatic melanoma and methods related to same” (STC.UNM, priority 2009, dated 2015)
